Assay [1] deals with T1, human adenosine A2A receptor (Homo sapiens, UniProt P29274).
T1 construct: expressed in transfected cells; host or cells: HEK293 cells infected with BacMam
The experiment in a line: Inhibition binding assay, human adenosine A2A receptor membranes, [3H]ZM241385. To be noted: 1 nM [3H]ZM241385, HEK293-hA2A membranes, 25° C., 1 h; IC50 converted to Ki with Cheng-Prusoff; read-out: A2A pKi (converted). In short, it runs like this: (§1)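 Membranes from BacMam-infected HEK293 cells (0.2 μg A2A, 1.4 μg A1) incubated 1 h at 25° C with test compound and 1 nM [3H]ZM241385 (A2A; 50 mM Tris-HCl pH 7.4) or [3H]DPCPX (A1; plus 100 mM NaCl, 10 mM MgCl2). Nonspecific: 1 μM CGS15943 or DPCPX. Filtration, scintillation; IC50 converted to Ki via Cheng-Prusoff.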

The target in assay [2] is T2, human adenosine A1 receptor (Homo sapiens, UniProt P30542).
T2 construct: expressed in transfected cells; host or cells: HEK293 cells infected with BacMam (the same paragraph also labels the preparation CHO-hA1)
T2 sequence (P30542 1-326): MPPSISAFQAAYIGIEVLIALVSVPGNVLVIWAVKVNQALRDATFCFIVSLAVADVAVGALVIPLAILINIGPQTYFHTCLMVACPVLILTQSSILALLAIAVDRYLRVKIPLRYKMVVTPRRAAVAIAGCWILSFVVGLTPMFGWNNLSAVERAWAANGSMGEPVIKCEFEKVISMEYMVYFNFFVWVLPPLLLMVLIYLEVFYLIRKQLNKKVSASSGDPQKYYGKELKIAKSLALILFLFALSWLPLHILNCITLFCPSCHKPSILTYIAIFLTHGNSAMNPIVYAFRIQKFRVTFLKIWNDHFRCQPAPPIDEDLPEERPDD
The experiment in a line: Inhibition binding assay, human adenosine A1 receptor membranes, [3H]DPCPX. To be noted: 1 nM [3H]DPCPX, 25° C., 1 h; IC50 converted to Ki with Cheng-Prusoff; read-out: A1 pKi (converted). The essentials: as §1

The results in this text go back to US12528815B2, “5-amino-8-(4-pyridyl)-[1,2,4]triazolo[4,3-c]pyrimidin-3-one compounds for use against cancer” (Nxera Pharma UK Limited, priority 2020, dated 2026).

Each structure is given as a SMILES string.

T1 sequence (P29274 whole entry): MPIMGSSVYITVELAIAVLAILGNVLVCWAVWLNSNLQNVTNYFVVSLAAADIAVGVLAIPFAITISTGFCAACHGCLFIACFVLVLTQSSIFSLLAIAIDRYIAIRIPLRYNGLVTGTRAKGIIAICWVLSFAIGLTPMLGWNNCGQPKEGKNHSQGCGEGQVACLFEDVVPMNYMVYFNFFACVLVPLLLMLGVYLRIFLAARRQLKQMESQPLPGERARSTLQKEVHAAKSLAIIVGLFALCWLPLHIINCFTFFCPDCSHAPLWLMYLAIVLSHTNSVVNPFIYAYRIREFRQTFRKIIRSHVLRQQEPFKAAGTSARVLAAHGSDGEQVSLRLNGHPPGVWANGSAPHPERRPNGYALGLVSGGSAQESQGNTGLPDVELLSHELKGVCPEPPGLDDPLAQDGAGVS

Turning to `Nc1nc(-c2ccccc2)c(-c2cc(Cl)nc(CO)c2)c2nn(Cc3ccc(F)cn3)c(=O)n12` [Example 1-69, 5-amino-8-[2-chloro-6-(hydroxymethyl)-4-pyridyl]-2-[(5-fluoro-2-pyridyl)methyl]-7-phenyl-[1,2,4]triazolo[4,3-c]pyrimidin-3-one], the Ki was 0.000794 µM in assay [1] and 0.251 µM in assay [2].

For the molecule `Cc1cc(-c2c(-c3ccccc3)nc(N)n3c(=O)n(Cc4ccc(F)cn4)nc23)cc(N(C)C)n1` [Example 1-71, 5-amino-8-[2-(dimethylamino)-6-methyl-4-pyridyl]-2-[(5-fluoro-2-pyridyl)methyl]-7-phenyl-[1,2,4]triazolo[4,3-c]pyrimidin-3-one], the Ki in assay [1] was 0.02 µM; in assay [2], 0.631 µM.

As for `Cc1cc(-c2c(-c3ccccc3)nc(N)n3c(=O)n(Cc4ccc(F)cn4)nc23)cc(C(F)(F)F)n1` [Example 1-72, 5-amino-2-[(5-fluoro-2-pyridyl)methyl]-8-[2-methyl-6-(trifluoromethyl)-4-pyridyl]-7-phenyl-[1,2,4]triazolo[4,3-c]pyrimidin-3-one], the Ki in assay [1] is 0.00251 µM; in assay [2], 0.126 µM.

On to `COc1cc(-c2c(-c3ccccc3)nc(N)n3c(=O)n(Cc4ccc(F)cn4)nc23)cc(CO)n1` [Example 1-73, 5-amino-2-[(5-fluoro-2-pyridyl)methyl]-8-[2-(hydroxymethyl)-6-methoxy-4-pyridyl]-7-phenyl-[1,2,4]triazolo[4,3-c]pyrimidin-3-one], for which the Ki in assay [1] is 0.00251 µM; in assay [2] it was 0.398 µM.

For `Cc1cc(-c2c(-c3ccccc3)nc(N)n3c(=O)n(Cc4ccc(F)cn4)nc23)cc(O)n1` [Example 1-74, 5-amino-2-[(5-fluoro-2-pyridyl)methyl]-8-(2-hydroxy-6-methyl-4-pyridyl)-7-phenyl-[1,2,4]triazolo[4,3-c]pyrimidin-3-one], the figures for the Ki in assay [1] and in assay [2] were 0.316 µM and greater than 3.16 µM, respectively.

In the case of `Cc1cc(-c2c(-c3ccccc3)nc(N)n3c(=O)n(Cc4ccc(F)cn4)nc23)cc(Cl)n1` [Example 1-76, 5-amino-8-(2-chloro-6-methyl-4-pyridyl)-2-[(5-fluoro-2-pyridyl)methyl]-7-phenyl-[1,2,4]triazolo[4,3-c]pyrimidin-3-one], the Ki was 0.000126 µM in assay [1] and 0.0794 µM in assay [2].

On to `COc1ccc(Cn2nc3c(-c4cc(C)nc(Cl)c4)c(-c4ccccc4)nc(N)n3c2=O)nc1` [Example 1-77, 5-amino-8-(2-chloro-6-methyl-4-pyridyl)-2-[(5-methoxy-2-pyridyl)methyl]-7-phenyl-[1,2,4]triazolo[4,3-c]pyrimidin-3-one], for which the figures for the Ki in assay [1] and in assay [2] were 0.000398 µM and 0.2 µM, respectively.

Consider `COc1cc(-c2c(-c3ccccc3)nc(N)n3c(=O)n(Cc4ccc(F)cn4)nc23)cc(C)n1` [Example 1-78, 5-amino-2-[(5-fluoro-2-pyridyl)methyl]-8-(2-methoxy-6-methyl-4-pyridyl)-7-phenyl-[1,2,4]triazolo[4,3-c]pyrimidin-3-one], for which the Ki in assay [1] is 0.000126 µM; in assay [2] it was 0.158 µM.

Consider `Nc1nc(-c2ccccc2)c(-c2cc(Cl)nc(C(F)(F)F)c2)c2nn(Cc3ccc(F)cn3)c(=O)n12` [Example 1-79, 5-amino-8-[2-chloro-6-(trifluoromethyl)-4-pyridyl]-2-[(5-fluoro-2-pyridyl)methyl]-7-phenyl-[1,2,4]triazolo[4,3-c]pyrimidin-3-one], for which the Ki in assay [1] is 0.00251 µM; in assay [2], 0.251 µM.

Regarding `Cc1cc(-c2c(-c3ccccc3)nc(N)n3c(=O)n(C(C)Cc4ccccc4)nc23)cc(C)n1` (stereo not shown) [Example 1-81, 5-amino-8-(2,6-dimethyl-4-pyridyl)-2-(1-methyl-2-phenyl-ethyl)-7-phenyl-[1,2,4]triazolo[4,3-c]pyrimidin-3-one], the Ki in assay [1] is 0.0251 µM; in assay [2], 0.631 µM.

Consider `Cc1cc(-c2c(-c3ccccc3)nc(N)n3c(=O)n(CCc4ccc(O)cc4)nc23)cc(C)n1` [Example 1-82, 5-amino-8-(2,6-dimethyl-4-pyridyl)-2-[2-(4-hydroxyphenyl)ethyl]-7-phenyl-[1,2,4]triazolo[4,3-c]pyrimidin-3-one], for which the Ki is 0.0126 µM in assay [1] and 0.251 µM in assay [2].

Regarding `Cc1cc(-c2c(-c3ccccc3)nc(N)n3c(=O)n(CCc4ccc(F)cc4)nc23)cc(C)n1` [Example 1-83, 5-amino-8-(2,6-dimethyl-4-pyridyl)-2-[2-(4-fluorophenyl)ethyl]-7-phenyl-[1,2,4]triazolo[4,3-c]pyrimidin-3-one], the Ki in assay [1] is 0.02 µM; in assay [2] it was 0.251 µM.

Take `COC(=O)c1ccc(CCn2nc3c(-c4cc(C)nc(C)c4)c(-c4ccccc4)nc(N)n3c2=O)cc1` [Example 1-84, methyl 4-[2-[5-amino-8-(2,6-dimethyl-4-pyridyl)-3-oxo-7-phenyl-[1,2,4]triazolo[4,3-c]pyrimidin-2-yl]ethyl]benzoate]: the figures for the Ki in assay [1] and in assay [2] were 0.0316 µM and 0.794 µM, respectively.

For `Cc1cc(-c2c(-c3ccccc3)nc(N)n3c(=O)n(CCc4ccc(C(=O)O)cc4)nc23)cc(C)n1` [Example 1-85, 4-[2-[5-amino-8-(2,6-dimethyl-4-pyridyl)-3-oxo-7-phenyl-[1,2,4]triazolo[4,3-c]pyrimidin-2-yl]ethyl]benzoic acid], the Ki in assay [1] is 0.2 µM; in assay [2] it was greater than 3.98 µM.

On to `Cc1cc(-c2c(-c3ccccc3)nc(N)n3c(=O)n(CCc4ccccn4)nc23)cc(C)n1` [Example 1-86, 5-amino-8-(2,6-dimethyl-4-pyridyl)-7-phenyl-2-[2-(2-pyridyl)ethyl]-[1,2,4]triazolo[4,3-c]pyrimidin-3-one], for which the Ki in assay [1] is 0.00501 µM; in assay [2], 0.794 µM.

Take `Cc1cc(-c2c(-c3ccc(F)cc3)nc(N)n3c(=O)n(CCc4ccccc4)nc23)cc(C)n1` [Example 1-87, 5-amino-8-(2,6-dimethyl-4-pyridyl)-7-(4-fluorophenyl)-2-(2-phenylethyl)-[1,2,4]triazolo[4,3-c]pyrimidin-3-one]: the values for the Ki in assay [1] and in assay [2] were 0.0158 µM and 0.501 µM, respectively.

Take `Cc1cc(-c2c(-c3ccccc3)nc(N)n3c(=O)n(CCc4ccccc4)nc23)cc(C(F)(F)F)n1` [Example 1-88, 5-amino-8-[2-methyl-6-(trifluoromethyl)-4-pyridyl]-7-phenyl-2-(2-phenylethyl)-[1,2,4]triazolo[4,3-c]pyrimidin-3-one]: the Ki was 0.0126 µM in assay [1] and 0.1 µM in assay [2].

For `Cc1cc(-c2c(-c3ccccc3)nc(N)n3c(=O)n(CCc4ccccc4)nc23)cc(Cl)n1` [Example 1-89, 5-amino-8-(2-chloro-6-methyl-4-pyridyl)-7-phenyl-2-(2-phenylethyl)-[1,2,4]triazolo[4,3-c]pyrimidin-3-one], the results for the Ki in assay [1] and in assay [2] were 0.00501 µM and 0.126 µM, respectively.

Regarding `Cc1cc(-c2c(-c3ccccc3)nc(N)n3c(=O)n(CCc4ccccc4)nc23)cc(N2CCC2)n1` [Example 1-90, 5-amino-8-[2-(azetidin-1-yl)-6-methyl-4-pyridyl]-7-phenyl-2-(2-phenylethyl)-[1,2,4]triazolo[4,3-c]pyrimidin-3-one], the Ki was 0.0126 µM in assay [1] and 0.398 µM in assay [2].

Turning to `CNC(=O)c1cc(NCCn2nc3c(-c4cc(C)nc(C)c4)c(-c4ccccc4)nc(N)n3c2=O)ccc1Cl` [Example 1-91, 5-[2-[5-amino-8-(2,6-dimethyl-4-pyridyl)-3-oxo-7-phenyl-[1,2,4]triazolo[4,3-c]pyrimidin-2-yl]ethylamino]-2-chloro-N-methyl-benzamide], the Ki is 0.0398 µM in assay [1] and 1 µM in assay [2].

For `Cc1cc(-c2c(-c3ccccc3)nc(N)n3c(=O)n(CCNC(C)c4nnc5ncccn45)nc23)cc(C)n1` (stereo not shown) [Example 1-92, 5-amino-8-(2,6-dimethyl-4-pyridyl)-7-phenyl-2-[2-[1-([1,2,4]triazolo[4,3-a]pyrimidin-3-yl)ethylamino]ethyl]-[1,2,4]triazolo[4,3-c]pyrimidin-3-one], the Ki in assay [1] was 0.126 µM; in assay [2], greater than 3.98 µM.

For the molecule `Cc1cc(-c2c(-c3ccccc3)nc(N)n3c(=O)n(CCN(C)C4CCN(c5ccccc5)CC4)nc23)cc(C)n1` [Example 1-93, 5-amino-8-(2,6-dimethyl-4-pyridyl)-2-[2-[methyl-(1-phenyl-4-piperidyl)amino]ethyl]-7-phenyl-[1,2,4]triazolo[4,3-c]pyrimidin-3-one], the Ki was 0.0316 µM in assay [1] and 0.631 µM in assay [2].

As to `Cc1cc(-c2c(-c3ccccc3)nc(N)n3c(=O)n(CCN[C@@H](C)c4cccc(C)n4)nc23)cc(C)n1` [Example 1-94, 5-amino-8-(2,6-dimethyl-4-pyridyl)-2-[2-[[(1S)-1-(6-methyl-2-pyridyl)ethyl]amino]ethyl]-7-phenyl-[1,2,4]triazolo[4,3-c]pyrimidin-3-one], the Ki is 0.01 µM in assay [1] and 0.398 µM in assay [2].
